The record followed here is patent US20190119282A1, “IMIDAZOPYRIDAZINES USEFUL AS INHIBITORS OF THE PAR-2 SIGNALING PATHWAY” (Vertex Pharmaceuticals Incorporated, priority 2013, published 2019).

Test [1] addresses T1, PAR2 (HT-29 cells, trypsin activation) (Homo sapiens, UniProt P55085).
T1 construct: host or cells: HT-29 cells
T1 sequence (P55085 26-397): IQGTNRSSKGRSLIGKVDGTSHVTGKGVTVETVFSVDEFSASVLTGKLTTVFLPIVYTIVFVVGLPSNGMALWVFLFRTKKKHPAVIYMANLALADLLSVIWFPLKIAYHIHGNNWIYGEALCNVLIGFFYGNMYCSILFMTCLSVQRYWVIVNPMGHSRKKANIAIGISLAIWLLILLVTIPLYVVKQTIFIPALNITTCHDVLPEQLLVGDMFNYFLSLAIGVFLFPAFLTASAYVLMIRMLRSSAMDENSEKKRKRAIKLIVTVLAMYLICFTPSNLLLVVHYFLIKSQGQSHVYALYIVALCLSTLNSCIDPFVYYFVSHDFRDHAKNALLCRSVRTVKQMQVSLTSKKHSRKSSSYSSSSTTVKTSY
Put plainly: Ca FLIPR TETRA assay, ANTAGONIST mode, stimulation with 3.1 U/mL trypsin. It is filed as cell-based. To be noted: for IC50: HT-29 cells; for Trypsin % @ 50 μM: reported prior-art compounds. Here is the method:
(§1) Example 60: Protocol for Testing PAR2 Compounds in ANTAGONIST Mode Using the Ca FLIPR^TETRA Assay (384 Well)
(§2) 23000 HT-29 cells (ATCC# HTB-38) were plated in 384-well black, transparent-flat bottom plates and incubated in 25 uL of 1% FBS/McCoy's media ON at 37° C. under an atmosphere of 5% CO2. The following day, 25 uL FLIPR calcium 5 Molecular Devices assay reagent (Cat: R-8186) was added. Plates were incubated at 37° C. and r. t. for 45 min and 15 min, respectively. Compounds dilutions were prepared in 100% DMSO using a Biomek FX and diluted 20-fold in HBSS and then 5.5 uL was added directly to the cells by the FLIPR^TETRA (10× dilution) using FLIPR Tetra Pipette tips, black, non-sterile, 384 Molecular Devices (Cat: 9000-0764).
(§3) A first read was performed to determine whether the test compounds on their own can activate Ca2+ responses.
(§4) The cells were incubated with the compounds for 30 min at r. t. and then read in ANTAGONIST mode in the same plate by stimulating with 6.2 uL of a fixed concentration of the activator: final concentrations: 8 μM SLIGKV, 1 U/mL Thrombin, 3.1 U/mL trypsin, or 0.6 μM UTP.

Test [2] has as its target T2, PAR2 (HT-29 cells, SLIGKV activation) (Homo sapiens, UniProt P55085).
T2 construct: host or cells: HT-29 cells
T2 sequence (P55085 26-397): T1 sequence (P55085 26-397)
Description: Ca FLIPR TETRA assay, ANTAGONIST mode, stimulation with 8 μM SLIGKV. It is filed as cell-based. To be noted: for IC50: HT-29 cells; for SLIGKV % @ concentration: @ 1.9 (μM). Here is the method:
as §1, §2, §3, §4

Test [3] has as its system Thrombin-stimulated Ca2+ response in HT-29 cells. Description: Ca FLIPR TETRA assay, ANTAGONIST mode, stimulation with 1 U/mL Thrombin. As to conditions: HT-29 cells, stimulation with 1 U/mL Thrombin. It is filed as cell-based, human. Here is the method: as §1, §2, §3, §4
Test [4] deals with UTP-stimulated Ca2+ response in HT-29 cells. Description: Ca FLIPR TETRA assay, ANTAGONIST mode, stimulation with 0.6 μM UTP. It is filed as cell-based, human. To be noted: for IC50: Homo sapiens, HT-29 cells, stimulation with 0.6 μM UTP. As for the experimental part: as §1, §2, §3, §4
Setting [5] is: stimulation with 3.1 U/mL trypsin.
Where [6] appears, read: antagonist mode, stimulation with 8 μM SLIGKV.
The mark [7] stands for this setting: antagonist mode, stimulation with 3.1 U/mL trypsin.
Where [8] appears, read: Table 8, reported compounds of WO2005/030773, JP2003286171, JP2004170323.

By IC50 is commonly meant the concentration that gives 50% inhibition.

Turning to `C[C@H]1CN(C(=O)c2cn3nc(-c4ccc(F)cc4)cc(C(F)(F)F)c3n2)CCN1C(=O)OC(C)(C)C` [Compound I-1, tert-Butyl (2S)-4-[6-(4-fluorophenyl)-8-(trifluoromethyl)imidazo[1,2-b]pyridazine-2-carbonyl]-2-methyl-piperazine-1-carboxylate], the IC50 turned out to be 1000 nM in test [1] (setting [5]), 280 nM in test [2] (stimulation with 8 μM SLIGKV), 3600 nM in test [3] (Homo sapiens) and 3100 nM in test [4].

As to `Cc1cc(-c2ccc(F)cc2)nn2cc(C(=O)N3CCN(C(=O)OC(C)(C)C)[C@@H](C)C3)nc12` [Compound I-2, tert-Butyl (2S)-4-[6-(4-fluorophenyl)-8-methyl-imidazo[1,2-b]pyridazine-2-carbonyl]-2-methyl-piperazine-1-carboxylate], the IC50 was 2400 nM in test [1] (setting [5]), 860 nM in test [2] (stimulation with 8 μM SLIGKV), 6100 nM in test [3] (Homo sapiens) and 4700 nM in test [4].

Turning to `CCc1cc(-c2ccc(F)cc2)nn2cc(C(=O)N3CCN(C(=O)OC(C)(C)C)[C@@H](C)C3)nc12` [Compound I-3, tert-Butyl (2S)-4-[8-ethyl-6-(4-fluorophenyl)imidazo[1,2-b]pyridazine-2-carbonyl]-2-methyl-piperazine-1-carboxylate], the IC50 in test [1] (setting [5]) was 825 nM; in test [2] (stimulation with 8 μM SLIGKV) it was 160 nM; in test [3] (Homo sapiens), 18000 nM; in test [4], 16000 nM.

`O=C(c1cn2nc(-c3ccc(F)cc3)cc(C(F)(F)F)c2n1)N1CCCCCC1` [Compound I-7, Azepan-1-yl-[6-(4-fluorophenyl)-8-(trifluoromethyl)imidazo[1,2-b]pyridazine-2-yl]methanone]: the IC50 is 89 nM in test [2] (stimulation with 8 μM SLIGKV), above 50000 nM in test [3] (Homo sapiens) and above 50000 nM in test [4].

On to `CCOC1CCN(C(=O)c2cn3nc(-c4ccc(F)cc4)cc(C(F)(F)F)c3n2)CC1` [Compound I-48], for which the “SLIGKV % @ concentration” value in test [2] stood at 51% @ 1.9. Also, the half-maximal inhibitory concentration (IC50) in test [3] (Homo sapiens) and in test [4] was above 50000 nM throughout.

With `O=C1NCCN2CCN(C(=O)c3cn4nc(-c5ccc(F)cc5)cc(C(F)(F)F)c4n3)CC12` (stereo not drawn) [Compound I-58], the values for the IC50 in test [2] (stimulation with 8 μM SLIGKV), in test [3] (Homo sapiens) and in test [4] were 1300 nM, above 50000 nM and above 50000 nM, respectively.

As to `C[C@H]1CCCCN1C(=O)c1cn2nc(-c3ccc(F)cc3)cc(C(F)(F)F)c2n1` [Compound I-65], in test [2], the “SLIGKV % @ concentration” value is recorded as 56% @ 1.9. For the same compound, the half-inhibitory concentration (IC50) in test [3] (Homo sapiens) and in test [4] was above 50000 nM in each case.

For the compound `O=C(c1cn2nc(-c3ccc(F)cc3)cc(C(F)(F)F)c2n1)N1CCCCC1c1nccs1` (stereo not drawn) [Compound I-73], the IC50 in test [1] (setting [5]) is 920 nM; in test [2] (stimulation with 8 μM SLIGKV), 740 nM; in test [3] (Homo sapiens) it was 1700 nM.

Regarding `CC(C)(C)OC(=O)NC1CCN(C(=O)c2cn3nc(-c4ccc(F)cc4)cc(C(F)(F)F)c3n2)CC1` [Compound I-74], the IC50 is 480 nM in test [2] (stimulation with 8 μM SLIGKV) and above 50000 nM in test [3] (Homo sapiens). Further, the “UTP % @ concentration” value in test [4] (@ 50 (μM)) is 62% @ 50.

Turning to `CN(C(=O)OC(C)(C)C)C1CCN(C(=O)c2cn3nc(-c4ccc(F)cc4)cc(C(F)(F)F)c3n2)CC1` [Compound I-77], the 50% inhibitory concentration (IC50) in test [2] (stimulation with 8 μM SLIGKV) was 680 nM; in test [3] (Homo sapiens), above 50000 nM; in test [4], above 50000 nM.

In the case of `C[C@H]1CN(C(=O)c2cn3nc(-c4ccc(F)cc4)cc(C(F)(F)F)c3n2)CCN1C(=O)c1cc(-c2ccccc2)n[nH]1` [Compound I-87], the IC50 in test [2] (stimulation with 8 μM SLIGKV) was 21 nM; in test [3] (Homo sapiens), above 50000 nM; in test [4], above 50000 nM.

With `C[C@H]1CN(C(=O)c2cn3nc(-c4ccc(F)cc4)cc(C(F)(F)F)c3n2)CCN1C(=O)c1ncc[nH]1` [Compound I-88], the half-maximal inhibitory concentration (IC50) is 680 nM in test [2] (stimulation with 8 μM SLIGKV), above 50000 nM in test [3] (Homo sapiens) and above 50000 nM in test [4].

Consider `Cc1cc(F)ccc1-c1cc(C(C)C)c2nc(C(=O)N3CCNC(=O)C3(C)C)cn2n1` [Compound I-478], for which the IC50 in test [2] (setting [6]) is 790 nM; in test [3] (Homo sapiens, antagonist mode), above 1000 nM; in test [4] (antagonist mode), above 1000 nM.

Turning to `CC(C)(C)c1cc(-c2ccc(F)cc2)nn2cc(C(=O)N3CCC(O)CC3(C)C)nc12` (stereo not drawn) [Compound I-484, (8-(tert-butyl)-6-(4-fluorophenyl)imidazo[1,2-b]pyridazin-2-yl)(4-hydroxy-2,2-dimethylpiperidin-1-yl)methanone], the IC50 in test [1] (setting [7]) is 9.6 nM; in test [2] (setting [6]), 2.8 nM; in test [3] (Homo sapiens, antagonist mode), above 1000 nM.

For the compound `COC(=O)C1CC(C(=O)N2CCN(C(=O)c3cn4nc(-c5ccc(F)cc5)cc(C(C)(C)C)c4n3)C(C)(C)C2)C1` (stereo not drawn) [Compound I-538], the IC50 in test [1] (setting [7]) was 0.9 nM; in test [2] (setting [6]), 0.8 nM; in test [3] (antagonist mode), above 1000 nM.

`O=C(O)C1CCCN(C(=O)c2cc3nc(-c4ccc(Cl)cc4)cc(C(F)(F)F)n3n2)C1` (stereo not drawn) [Compound P-600, reference compound]: the IC50 in test [1] (setting [8]) is above 50000 nM; in test [2] (setting [8]) it was 37000 nM.

Consider `O=C(c1cc2nc(-c3ccccc3)cc(C(F)(F)F)n2n1)N1CCCCCC1` [Compound P-601, reference compound], for which the values for the IC50 in test [1] (setting [8]) and in test [2] (setting [8]) were 880 nM and 61 nM, respectively.

Regarding `CN(CCO)C(=O)c1cc2nc(-c3ccccc3)cc(C(F)(F)F)n2n1` [Compound P-602, reference compound], the IC50 in test [1] (setting [8]) is above 50000 nM; in test [2] (setting [8]), 31000 nM.

For the compound `CCOC(=O)C1CCN(C(=O)c2cc3nc(-c4ccccc4)cc(C(F)(F)F)n3n2)CC1` [Compound P-603, reference compound], the half-inhibitory concentration (IC50) in test [1] (setting [8]) was found to be 17000 nM; in test [2] (setting [8]), 140 nM.

For `CCOC(=O)C1CCCCN1C(=O)c1cc2nc(-c3ccccc3)cc(C(F)(F)F)n2n1` (stereo not drawn) [Compound P-604, reference compound], the figures for the half-maximal inhibitory concentration (IC50) in test [1] (setting [8]) and in test [2] (setting [8]) were 3850 nM and 640 nM, respectively.

Take `CCOC(=O)C1CCN(C(=O)c2cc3nc(-c4ccc(Cl)cc4)cc(C(F)(F)F)n3n2)CC1` [Compound P-605, reference compound]: the “Trypsin % @ 50 μM” value in test [1] (Table 8) worked out at 50% @ 50 μM. Besides, the IC50 in test [2] (setting [8]) is 73 nM.

With `O=C(c1ccccc1)N1CCN(C(=O)c2cc3nc(-c4ccc(Cl)cc4)cc(C(F)(F)F)n3n2)CC1` [Compound P-606, reference compound], the half-inhibitory concentration (IC50) in test [1] (setting [8]) is above 50000 nM; in test [2] (setting [8]) it was 370 nM.

As for `O=C(c1cc2nc(-c3ccccc3)cc(C(F)(F)F)n2n1)N1CCC(c2ccc(F)cc2)C1` (stereo not drawn) [Compound P-607, reference compound], the concentration for half-maximal inhibition (IC50) in test [1] (setting [8]) and in test [2] (setting [8]) was above 50000 nM each time.

With `O=C(c1nn2c(C(F)(F)F)cc(-c3ccccc3)nc2c1Br)N1CCC(c2ccc(F)cc2)C1` (stereo not drawn) [Compound P-608, reference compound], the half-inhibitory concentration (IC50) in test [1] (setting [8]) worked out at 33000 nM; in test [2] (setting [8]), 23000 nM.

For `O=C(c1cc2nc(-c3ccccc3)cc(C(F)(F)F)n2n1)N1CCC(O)CC1` [Compound P-609, reference compound], the IC50 in test [1] (setting [8]) came to 14000 nM; in test [2] (setting [8]), 2800 nM.

As to `O=C(O)C1CCCCN(C(=O)c2cc3nc(-c4ccc(F)cc4)cc(C(F)(F)F)n3n2)C1` (stereo not drawn) [Compound P-610, reference compound], in test [1] (Table 8), the “Trypsin % @ 50 μM” value turned out to be 63% @ 50 μM. Moreover, the IC50 in test [2] (setting [8]) was determined as 480 nM.

Regarding `O=C(O)C1CCCCN(C(=O)c2cc3nc(-c4ccc(Cl)cc4)cc(C(F)(F)F)n3n2)C1` (stereo not drawn) [Compound P-611, reference compound], the IC50 stood at 1250 nM in test [1] (setting [8]) and 110 nM in test [2] (setting [8]).
